Measurements reported in patent publication US10196357B2, “Biaryl compositions and methods for modulating a kinase cascade” (Athenex, Inc., priority 2007, dated 2019).
Blank lines part the entries; values can stand above or below the molecule they belong to.

Assays:
[1] = noise-induced hearing loss; assay type: in vivo, Chinchillas; conditions: chinchilla ears treated on round window, 4 kHz band noise 105 dB SPL 4 h, days 1, 7, 21; relative to control ears
Procedure: Chinchillas (N=6) were used in studies of noise-induced hearing loss. The animals' hearing sensitivity was measured using standard electrophysical techniques before the experimental manipulation. […] Animals were anesthetized, the auditory bullae were opened, and the left and right cochleas were visualized. The round window leading to the scala tympani of the cochlea was used as the access point for drug application. Animals were treated with KX1-004, KX1-141, KX1-329 or KX2-328 (a non-ATP competitive inhibitor from AstraZeneca, KX2-238), emulsified in DMSO, in 1000 mM of saline solution, which was placed on the round window of one ear. KX1-004:
A control solution of 3 mM DMSO in 1000 mM of saline solution was placed on the round window of the other ear. The solution was allowed to set on the round window for 30 minutes, then the auditory bullae were closed. […] Following the noise exposure, the animals' hearing was tested at day 1, day 7, and day 21 to determine evoked potential threshold shifts. Permanent threshold shift was assessed at day 21.
FIGS. 10-12 show the average threshold shifts for animals treated with KX1-004, KX1-141, KX1-329 or KX2-328.

[2] = cisplatin-induced hearing loss; assay type: in vivo; conditions: guinea pigs, subcutaneous treatment prior to cisplatin
Procedure: The effects of high level noise and ototoxic drugs, such as cisplatin or the class of aminoglycosides, share several common features in the inner ear. First, the noise and/or drugs alter the free radical/antioxidant levels in the cochlea (inner ear). […] Guinea pigs (N=7) were used in studies of cisplatin-induced hearing loss. The animals' hearing sensitivity was measured using standard electrophysical techniques before the experimental manipulation. […] Animals were anesthetized and treated with cisplatin. Subsequently, the animals' hearing was tested to determine evoked potential threshold shifts.
KX1 is CH65. Animals were treated subcutaneously with KX1-004 prior to the cisplatin-induced hearing loss.

HepG2-2.2.15 cells = test: cytotoxicity in HBV primary assay (MTS); assay type: cell-based; conditions: Test Concentration 10 μM
Procedure: (§1) The antiviral activity of each test compound was calculated by comparing its HBV DNA copies against that of the untreated control cells (100%) to derive percent inhibition level. After removing the supernatant, the remaining cells were subject to CellTiter 96 Aqueous One (Promega, Madison, Wis.) solution cell proliferation assay (MTS-based) to measure cell viability. Cytotoxicity of the compound was determined by comparing its cell viability with that of the untreated cell control to derive percentage of the cell control.

[3] = test system: wild-type aywl strain of HBV; test: HBV primary assay (HepG2-2.2.15 antiviral assay); assay type: cell-based; conditions: Test Concentration 10 μM
Procedure: The HBV primary assay developed was conducted similarly to that described by Korba et al., (Antiviral Res. 15: 217-228 (1991) and Antiviral Res. 19: 55-70 (1992)) with the exception that viral DNA detection and quantification have been improved and simplified (Korba et al., Antiviral Res. 19: 55-70 (1992)).
Compound 38 (KX2-377), Compound 136 (KX2-393), and Compound 137 (KX2-394) were evaluated for potential anti-HBV activity using a single high-test concentration of compounds in the standardized HepG2-2.2.15 antiviral assay. The HepG2-2.2.15 is a stable cell line producing high levels of the wild-type aywl strain of HBV. Briefly, HepG2-2.2.15 cells were plated in 96-well plates. Only the interior wells were utilized to reduce “edge effects” observed during cell culture; the exterior wells are filled with complete medium to help minimize sample evaporation. On the following day, the confluent monolayer of HepG2-2.2.15 cells was washed and the medium is replaced with complete medium containing test concentrations of a test article in triplicate. 3TC was used as the positive control, while media alone was added to cells as the untreated control. Three days later the culture medium was replaced with fresh medium containing the appropriately diluted drug. Six days following the initial administration of the test compound, the cell culture supernatant was collected, treated with pronase and DNAse and then used in a real-time quantitative TaqMan PCR assay for direct measurement of HBV DNA copies using an ABI Prism 7900 sequence detection system (Applied Biosystems, Foster City, Calif.).
as §1

769-P = test: renal tumor cell growth inhibition, 769-P; assay type: cell-based, Human; conditions: Homo sapiens
Procedure: (§2) These GI50s were determined using standard tumor growth inhibition assays, similar to those described in detail in this Example 7.

786-O = test: renal tumor cell growth inhibition, 786-O; assay type: cell-based, Human; conditions: Homo sapiens, 786-0, renal cell adenocarcinoma
Procedure: as §2

Caki-2 = test: renal tumor cell growth inhibition, Caki-2; assay type: cell-based, Human; conditions: Homo sapiens; Caki-2, clear cell carcinoma
Procedure: as §2

ACHN = test: renal tumor cell growth inhibition, ACHN; assay type: cell-based, Human; conditions: Homo sapiens, renal cell adenocarcinoma
Procedure: as §2

Hep 3B = test: MTT growth inhibition, Hep 3B; assay type: cell-based, human; conditions: Hep 3B, 8.0×10^3 cells/wells, […] FBS @ 78 Hr
Procedure: (§3) Samples of the test compounds were formulated in 100% DMSO to obtain 20 mM stock solutions; stored @ 4° C. The IC50s and IC80s were determined as described below. Huh7, WRL-68, PLC/PRF/5, Hep 3B, and Hep G2 human cancer lines were routinely cultured and maintained in a basal medium containing 2% FBS @ 37° C., 5% CO2. […] Vehicle control contained cells, no sample. Medium control contained cells, no sample, 0.03% DMSO (highest DMSO concentration present in samples). […] On day 3, 10 μL MTT (5 mg/mL) were added to each well. Cells were incubated in the presence of MTT for 4 hours @ 37° C., 5% CO2. […] Cells were then incubated overnight @ 37°, 5% CO2. OD570 measurements were taken using BioTek Synergy HT multiplatform microplate reader. Growth inhibition curves IC50s and IC80s were determined using GraphPad Prism 5 statistical software.

Hep G2 = test: MTT growth inhibition, Hep G2; assay type: cell-based, human; conditions: Hep G2, 8.0×10^3 cells/wells, […] FBS @ 78 Hr
Procedure: (§4) Samples of the test compounds were formulated in 100% DMSO to obtain 20 mM stock solutions; stored @ 4° C. The IC50s and IC80s were determined as described below. Huh7, WRL-68, PLC/PRF/5, Hep 3B, and Hep G2 human cancer lines were routinely cultured and maintained in a basal medium containing 2% FBS @ 37° C., 5% CO2. […] The assay medium was basal medium/1.5% FBS. Cells were cultured overnight in 96-well plates at 37° C., 5% CO2 prior to KX2-391. MSA and Dasatinib addition. […] 10 μL of 20× dilutions were added to the appropriate wells (n=3) containing 190 μL cancer cell line; 6561 nM to 0.012 nM range of final concentrations. Vehicle control contained cells, no sample. Medium control contained cells, no sample, 0.03% DMSO (highest DMSO concentration present in samples). […] On day 3, 10 μL MTT (5 mg/mL) were added to each well. Cells were incubated in the presence of MTT for 4 hours @ 37° C., 5% CO2. […] Cells were then incubated overnight @ 37°, 5% CO2. OD570 measurements were taken using BioTek Synergy HT multiplatform microplate reader. Growth inhibition curves IC50s and IC80s were determined using GraphPad Prism 5 statistical software.

PLC/PRF/5 = test: MTT growth inhibition, PLC/PRF/5; assay type: cell-based, human; conditions: PLC/PRF/5, 8.0×10^3 cells/wells, […] FBS @ 78 Hr
Procedure: as §3

WRL-68 = test: MTT growth inhibition, WRL-68; assay type: cell-based, human; conditions: WRL-68, 8.0×10^3 cells/wells, […] FBS @ 78 Hr
Procedure: as §3

HuH7 = test: MTT growth inhibition, HuH7; assay type: cell-based, human; conditions: HuH7, 8.0×10^3 cells/wells, […] FBS @ 78 Hr
Procedure: as §4

[4] = test system: lung cancer cell line A549; test: tumor growth inhibition, A549; assay type: cell-based, Human; conditions: Homo sapiens; A549 cells
Description: Growth Inhibition. […] T1 values≤T0 values were designated as T, cytotoxicity.

[5] = test system: lung cancer cell line H460; test: tumor growth inhibition, H460; assay type: cell-based; conditions: Homo sapiens, NCI-H460; H460 cells
Procedure: (§5) These GI50's were determined using the standard tumor growth inhibition assays, similar to that described in detail for the HT29 cell line above, and the following cell lines: colon tumor cell lines KM 12, lung cancer cell line H460 and lung cancer cell line A549 (all are NCI standard tumor cell lines).

HT29 cell line = test: BrdU cell growth inhibition, HT29; assay type: cell-based, human; conditions: Homo sapiens
In short: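 HT29 colon carcinoma cells treated with compounds diluted from 20 mM DMSO stocks into DMEM/10% FBS. Proliferation read as colorimetric BrdU incorporation ELISA; GI calculated relative to untreated cells at time 0 and control cells at day n, with GI50 extrapolated. Net cell loss below time-0 level scored as cytotoxicity.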

[6] = test system: colon tumor cell line KM 12; test: tumor growth inhibition, KM12; assay type: cell-based; conditions: Homo sapiens; KM12 cells
Procedure: as §5

c-Src 3T3 cells = test: BrdU cell growth inhibition, c-Src 3T3; assay type: cell-based, mouse; conditions: Mus musculus
In short: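 c-Src 3T3 cells on poly-D-lysine plates in DMEM with 2% FBS, L-glutamine, pyruvate and 10 mM HEPES. Compounds came from 20 mM DMSO stocks diluted in DMEM/10% FBS. Proliferation was read by colorimetric BrdU-incorporation ELISA, and GI50 was extrapolated from growth relative to time-zero and untreated controls.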

Molecule: KX1-004
average dB threshold shifts [1]: lower
protection against cisplatin-induced hearing loss [2]: protected against ciplatin-induced hearing loss

Molecule: Cl.Cl.O=C(Cc1ccc(-c2ccc(OCCN3CCOCC3)cc2)cn1)NCc1ccccc1 [KXO1:2HCl]
Cytotoxicity Percent of cell control (HepG2-2.2.15 cells): 51.3%
Antiviral Activity Percent inhibition of cell control [3]: 48.2%
Interpretation [3]: Cytotoxic

GI50 (769-P): 8.4 nM
GI50 (786-O): 57.7 nM
GI50 (Caki-2): 5 nM
GI50 (ACHN): 6.9 nM
Molecule: CN1CCN(CCOc2ccc(-c3ccc(CC(=O)NCc4cccc(F)c4)cc3)c(F)c2)CC1 [KX2-402]

Molecule: O=C(Cc1ccc(-c2ccc(OCCN3CCOCC3)cc2)cn1)NCc1ccccc1 [KX2-391-MSA]
IC50 (Hep 3B): 26 nM
IC80 (Hep 3B): 88 nM
IC50 (Hep G2): 60 nM
IC80 (Hep G2): 3660 nM
IC50 (PLC/PRF/5): 13 nM
IC80 (PLC/PRF/5): 24 nM
IC50 (WRL-68): 15 nM
IC80 (WRL-68): 25 nM
IC50 (HuH7): 9 nM
IC80 (HuH7): 23 nM

GI50 [4]: 1030 nM
GI50 [5]: 890 nM
GI50 (HT29 cell line; HT-29, HT29 (Colon) cells, read-out: GI50): 877 nM
GI50 [6]: 410 nM
melting point: 170 to 172 °C
Molecule: O=C(Cc1ccc(-c2ccccc2)cc1)NCc1cccc(F)c1 [KX1-305, N(3-fluoro-benzyl)-4-biphenylacetamide]
activity at 0.05 µM (HT29 cell line; HT-29, 50 nM, read-out: HT-29 Growth, % of Control Mean, n = 3): 108%
activity at 0.5 µM (HT29 cell line; HT-29, 500 nM, read-out: HT-29 Growth, % of Control Mean, n = 3): < 0%
activity at 5 µM (HT29 cell line; HT-29, 5 uM, read-out: HT-29 Growth, % of Control Mean, n = 3): < 0%
activity at 0.1 µM (c-Src 3T3 cells; NIH3T3, 100 nM, read-out: c-Src 3T3 Growth, % of Control Mean, n = 3): 35%
activity at 1 µM (c-Src 3T3 cells; NIH3T3, 1.0 uM, read-out: c-Src 3T3 Growth, % of Control Mean, n = 3): < 0%
activity at 10 µM (c-Src 3T3 cells; NIH3T3, 10 uM, read-out: c-Src 3T3 Growth, % of Control Mean, n = 3): < 0%
GI50 (c-Src 3T3 cells; c-Src 3T3 (c-Src527F/NIH3T3) cells, read-out: GI50): 349 nM
